Data as given in paper PMC7031696 (Cell chemical biology, 2019).
Where two headings read alike, the source gives them in different places.

What was measured:
[1] = system: 3D7-MR4 trophozoite parasite-infected RBCs; assay: Metabolomic profiling (hydrophilic metabolite changes, UHPLC-MS); assay type: cell-based, Plasmodium falciparum
[2] = system: asynchronous 3D7-A10 parasite cultures; assay: Standard 72-h exposure asexual blood stage susceptibility assay (IC50^72h); assay type: cell-based, Plasmodium falciparum; conditions: Plasmodium falciparum, 3D7, 72 h, read-out: Overall (72hr assay) Mean IC50 (IC50^72h)
[3] = system: Plasmodium falciparum 3D7-A10 parasites; assay: Stage specificity assay (8-h exposure of synchronized stages, IC50^8h); assay type: cell-based; conditions: for IC50: Plasmodium falciparum

O=C(Nc1ccsc1C(=O)NC1CCCCC1)c1ccc(F)cc1 [MMV665939]
Log2(fold changes) 3-phosphoglycerate ([1]; metabolite 3-phosphoglycerate, log2 fold change): -0.3920 | Log2(fold changes) 4-Pyridoxic acid ([1]; metabolite 4-Pyridoxic acid, log2 fold change): -0.0874 | Log2(fold changes) 4-aminobutyrate ([1]; metabolite 4-aminobutyrate, log2 fold change): -0.3253 | Log2(fold changes) 4-phosphopantetheine ([1]; metabolite 4-phosphopantetheine, log2 fold change): 0.0000 | Log2(fold changes) 4-phosphopantothenate ([1]; metabolite 4-phosphopantothenate, log2 fold change): -0.8024 | Log2(fold changes) 5-aminopentanoic acid ([1]; metabolite 5-aminopentanoic acid, log2 fold change): 0.0000 | Log2(fold changes) 5-methyl-THF ([1]; metabolite 5-methyl-THF, log2 fold change): 0.0000 | Log2(fold changes) 5-phosphoribosyl-1-pyrophosphate ([1]; metabolite 5-phosphoribosyl-1-pyrophosphate, log2 fold change): 0.0000 | Log2(fold changes) 6-phospho-D-gluconate ([1]; metabolite 6-phospho-D-gluconate, log2 fold change): -0.2234 | Log2(fold change) HVDD ([1]; metabolite HVDD): -0.9968 | Log2(fold change) Hydroxyisocaproic acid ([1]; metabolite Hydroxyisocaproic acid): 0.0000 | Log2(fold change) IDP ([1]; metabolite IDP): 0.0000 | Log2(fold change) IMP ([1]; metabolite IMP): 0.0265 | Log2(fold change) Inositol ([1]; metabolite Inositol): 0.0000 | Log2(fold change) Isopentyl-PP ([1]; metabolite Isopentyl-PP): -0.3712 | Log2(fold change) L-arginino-succinate ([1]; metabolite L-arginino-succinate): -0.4465 | Log2(fold change) LD ([1]; metabolite LD): -0.2140 | Log2(fold change) Myristoyl/tetradecanoyl-CoA ([1]; metabolite Myristoyl/tetradecanoyl-CoA): 0.0000 | Log2(fold change) N-Acetyl-L-alanine ([1]; metabolite N-Acetyl-L-alanine): 1.1605 | Log2(fold change) N-acetyl-L-ornithine ([1]; metabolite N-acetyl-L-ornithine): -0.6303 | Log2(fold change) N-acetyl-glucosamine-1/6-phosphate ([1]; metabolite N-acetyl-glucosamine-1/6-phosphate): 0.0837 | Log2(fold change) N-acetyl-glutamate ([1]; metabolite N-acetyl-glutamate): -0.0309 | Log2(fold change) N-acetyl-glutamine ([1]; metabolite N-acetyl-glutamine): 0.1208 | Log2(fold change) N-carbamoyl-L-aspartate ([1]; metabolite N-carbamoyl-L-aspartate): 0.2551 | Log2(fold change) NAD+ ([1]; metabolite NAD+): -0.2042 | Log2(fold change) NADH ([1]; metabolite NADH): 0.1443 | Log2(fold change) NADP+ ([1]; metabolite NADP+): -0.0542 | Log2(fold change) NADPH ([1]; metabolite NADPH): 0.2171 | Log2(fold change) O-acetyl-L-serine ([1]; metabolite O-acetyl-L-serine): -0.2734 | Log2(fold change) Octoluse 8/1P ([1]; metabolite Octoluse 8/1P): -0.3337 | Log2(fold change) Octoluse Bisphosphate ([1]; metabolite Octoluse Bisphosphate): -0.2536 | Log2(fold change) PD ([1]; metabolite PD): -0.8727 | Log2(fold change) PE ([1]; metabolite PE): -0.7610 | Log2(fold change) PEE ([1]; metabolite PEE): -0.6388 | Log2(fold change) PEEK ([1]; metabolite PEEK): -0.8443 | Log2(fold change) PVNF ([1]; metabolite PVNF): -0.9198 | Log2(fold change) Pyroglutamic acid ([1]; metabolite Pyroglutamic acid): 0.4907 | Log2(fold change) Pyrophosphate ([1]; metabolite Pyrophosphate): 0.0000 | Log2(fold change) Ribose-5-phosphate ([1]; metabolite Ribose-5-phosphate): -0.6260 | Log2(fold change) S-adenosyl-L-homocysteine ([1]; metabolite S-adenosyl-L-homocysteine): 0.0358 | Log2(fold change) S-adenosyl-L-methioninamine ([1]; metabolite S-adenosyl-L-methioninamine): -2.1855 | Log2(fold change) S-adenosyl-L-methionine ([1]; metabolite S-adenosyl-L-methionine): 0.0000 | Log2(fold change) S-methyl-5'-thioadenosine ([1]; metabolite S-methyl-5'-thioadenosine): 0.4868 | Log2(fold change) SD ([1]; metabolite SD): -0.5679 | Log2(fold change) SDL ([1]; metabolite SDL): 0.0000 | Log2(fold change) SID ([1]; metabolite SID): -0.5481 | Log2(fold change) Sedoheptulose bisphosphate ([1]; metabolite Sedoheptulose bisphosphate): -0.1986 | Log2(fold change) Thiamine pyrophosphate ([1]; metabolite Thiamine pyrophosphate): -0.1355 | Log2(fold changes) UDP-D-glucose ([1]; metabolite UDP-D-glucose, log2 fold change): 0.0446 | Log2(fold changes) UDP-D-glucuronate ([1]; metabolite UDP-D-glucuronate, log2 fold change): -0.0014 | Log2(fold changes) UDP-N-acetyl-glucosamine ([1]; metabolite UDP-N-acetyl-glucosamine, log2 fold change): -0.0268 | Log2(fold changes) UDP ([1]; metabolite UDP, log2 fold change): -0.1898 | Log2(fold changes) UMP ([1]; metabolite UMP, log2 fold change): -0.0875 | Log2(fold changes) UTP ([1]; metabolite UTP, log2 fold change): 0.0000 | Log2(fold change) hydroxyphenylpyruvate ([1]; metabolite hydroxyphenylpyruvate): 0.0000 | Log2(fold change) hydroxyproline/Aminolevulinate ([1]; metabolite hydroxyproline/Aminolevulinate): -0.3323 | Log2(fold change) hypoxanthine ([1]; metabolite hypoxanthine): -0.1428 | Log2(fold change) indole ([1]; metabolite indole): 0.0000 | Log2(fold change) inosine ([1]; metabolite inosine): -0.4892 | Log2(fold change) isoleucine ([1]; metabolite isoleucine): 0.0000 | Log2(fold change) lactate ([1]; metabolite lactate): -0.3845 | Log2(fold change) leucine ([1]; metabolite leucine): 0.0000 | Log2(fold change) lysine ([1]; metabolite lysine): -0.8365 | Log2(fold change) malate ([1]; metabolite malate): -0.6264 | Log2(fold change) maleic acid ([1]; metabolite maleic acid): -0.6374 | Log2(fold change) methionine ([1]; metabolite methionine): -0.3116 | Log2(fold change) myo-inositol ([1]; metabolite myo-inositol): -0.4650 | Log2(fold change) nicotinamide mononucleotide ([1]; metabolite nicotinamide mononucleotide): -0.2358 | Log2(fold change) nicotinate ([1]; metabolite nicotinate): 0.0360 | Log2(fold change) ornithine ([1]; metabolite ornithine): -0.4311 | Log2(fold change) orotate ([1]; metabolite orotate): -0.0365 | Log2(fold change) orotidine-5'-phosphate ([1]; metabolite orotidine-5'-phosphate): -0.4342 | Log2(fold change) oxaloacetate ([1]; metabolite oxaloacetate): -0.0755 | Log2(fold change) p-aminobenzoate ([1]; metabolite p-aminobenzoate): 0.0000 | Log2(fold change) p-hydroxybenzoate ([1]; metabolite p-hydroxybenzoate): 0.0000 | Log2(fold change) pantothenate ([1]; metabolite pantothenate): -0.2337 | Log2(fold change) phenylalanine ([1]; metabolite phenylalanine): -0.4167 | Log2(fold change) phenylpyruvate ([1]; metabolite phenylpyruvate): 0.0000 | Log2(fold change) phosphoenolpyruvate ([1]; metabolite phosphoenolpyruvate): -0.3202 | Log2(fold change) prephenate ([1]; metabolite prephenate): -0.6614 | Log2(fold change) proline ([1]; metabolite proline): -0.2978 | Log2(fold change) pyridoxine ([1]; metabolite pyridoxine): -0.1996 | Log2(fold change) pyruvate ([1]; metabolite pyruvate): -0.7329 | Log2(fold change) riboflavin ([1]; metabolite riboflavin): 0.5336 | Log2(fold change) ribose ([1]; metabolite ribose): -0.3218 | Log2(fold change) ribose-phosphate ([1]; metabolite ribose-phosphate): -0.6165 | Log2(fold change) ribulose-5-phosphate ([1]; metabolite ribulose-5-phosphate): -0.5816 | Log2(fold change) serine ([1]; metabolite serine): -0.3504 | Log2(fold change) sn-glycerol-3-phosphate ([1]; metabolite sn-glycerol-3-phosphate): -0.3556 | Log2(fold change) succinate/Methylmalonic acid ([1]; metabolite succinate/Methylmalonic acid): -0.3870 | Log2(fold change) succinyl-CoA/methylmalonyl-CoA ([1]; metabolite succinyl-CoA/methylmalonyl-CoA): 0.0000 | Log2(fold change) taurine ([1]; metabolite taurine): -0.0411 | Log2(fold change) thiamine ([1]; metabolite thiamine): -0.2425 | Log2(fold change) threonine/homoserine ([1]; metabolite threonine/homoserine): -0.2222 | Log2(fold change) thymidine ([1]; metabolite thymidine): 0.0000 | Log2(fold changes) thymine ([1]; metabolite thymine, log2 fold change): 0.0000 | Log2(fold changes) trehalose-6-Phosphate ([1]; metabolite trehalose-6-Phosphate, log2 fold change): 0.0000 | Log2(fold changes) tryptophan ([1]; metabolite tryptophan, log2 fold change): -1.0924 | Log2(fold changes) tyrosine ([1]; metabolite tyrosine, log2 fold change): -0.3159 | Log2(fold changes) uridine ([1]; metabolite uridine, log2 fold change): 0.0000 | IC50 [2]: 0.478 µM | Ratio lowest IC50 8hr/IC50 72hr ([3]; 3D7-A10): 28.2 | IC50 ([3]; 3D7, read-out: Early rings Mean IC50 (IC50^8h), 8-h exposure 0–8 hr, 3D7-A10, survival at 60 h): 17 µM | IC50 ([3]; 3D7, read-out: Early trophozoites Mean IC50 (IC50^8h), 8-h exposure 16–24 hr, 3D7-A10, survival at 60 h): 13.5 µM | IC50 ([3]; 3D7, read-out: Late rings Mean IC50 (IC50^8h), 8-h exposure 8–16 hr, 3D7-A10, survival at 60 h): 22.9 µM | IC50 ([3]; 3D7, read-out: Late trophozoites Mean IC50 (IC50^8h), 8-h exposure 24–32 hr, 3D7-A10, survival at 60 h): 39 µM | IC50 ([3]; 3D7, read-out: Schizonts Mean IC50 (IC50^8h), 8-h exposure 32–40 hr, 3D7-A10, survival at 60 h): 54.4 µM | IC50^8h relative to IC50^72h value ([3]; most susceptible stages): > 28 fold
